Where two headings read alike, the source gives them in different places. Positions of bridges follow the written chain, without caps; N, C: chain ends. Non-standard residues stand in square brackets, D forms with d. Chains are numbered I, II in the order given. *: point of attachment. C18 diacid = O=C(O)CCCCCCCCCCCCCCCCC(=O)*; NMeY = CN[C@@H](Cc1ccc(O)cc1)C(=O)O; Aib = CC(C)(N)C(=O)O

The target in one data set is T1, human GLP-1R (Homo sapiens, UniProt P43220).
T1 construct: HEK-293T cells overexpressing full-length human GLP-1R; FLAG (N); host or cells: HEK-293T
T1 sequence (P43220 24-463): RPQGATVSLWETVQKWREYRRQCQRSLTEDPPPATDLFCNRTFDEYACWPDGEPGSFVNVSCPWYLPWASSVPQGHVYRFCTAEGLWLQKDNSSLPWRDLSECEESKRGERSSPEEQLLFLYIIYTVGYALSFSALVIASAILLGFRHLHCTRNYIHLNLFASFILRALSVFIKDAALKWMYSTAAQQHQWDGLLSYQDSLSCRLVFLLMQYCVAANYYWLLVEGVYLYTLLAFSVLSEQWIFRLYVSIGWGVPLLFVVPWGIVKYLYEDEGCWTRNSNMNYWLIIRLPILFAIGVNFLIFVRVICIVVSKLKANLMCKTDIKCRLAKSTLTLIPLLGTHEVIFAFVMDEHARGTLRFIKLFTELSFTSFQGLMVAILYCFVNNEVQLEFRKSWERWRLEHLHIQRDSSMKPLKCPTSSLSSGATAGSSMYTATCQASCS
Kind of data set: Human GLP1R agonist activity, intracellular cAMP accumulation. Conditions: HEK-293T cells overexpressing human GLP-1R, 1 hr. It is filed as cell-based. The gist of the method: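 Frozen assay-ready cells washed and resuspended at 4×10^5 cells/mL in Krebs Ringer buffer, then incubated with compound 1 hr at room temperature in the dark. cAMP read by HTRF (anti-cAMP antibody, d2-cAMP tracer). Normalised to 1 nm GLP-1 (100%) and DMSO (0%).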
For orientation: cAMP levels reflect the balance of adenylyl cyclase and phosphodiesterase activity.

The target in a further data set is T2, human GIPR (Homo sapiens, UniProt P48546).
T2 construct: HEK-293T cells overexpressing full-length human GIPR; FLAG (N); host or cells: HEK-293T
T2 sequence (P48546 22-466): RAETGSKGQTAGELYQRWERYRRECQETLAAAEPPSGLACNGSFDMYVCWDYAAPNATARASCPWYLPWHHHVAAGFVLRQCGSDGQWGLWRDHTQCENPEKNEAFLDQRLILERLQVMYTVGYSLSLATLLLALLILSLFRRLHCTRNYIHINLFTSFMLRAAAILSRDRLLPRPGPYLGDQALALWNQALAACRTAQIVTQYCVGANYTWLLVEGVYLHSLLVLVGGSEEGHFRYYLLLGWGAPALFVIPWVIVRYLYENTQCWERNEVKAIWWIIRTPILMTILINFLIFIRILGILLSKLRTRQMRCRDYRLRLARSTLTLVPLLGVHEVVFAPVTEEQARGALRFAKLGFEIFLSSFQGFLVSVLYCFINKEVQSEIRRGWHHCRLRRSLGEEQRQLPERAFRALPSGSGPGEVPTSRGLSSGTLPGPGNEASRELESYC
Kind of data set: Human GIPR agonist activity, intracellular cAMP accumulation. It is filed as cell-based. As to the method: Cells are cultured per the manufacturer's protocol in DMEM with 10% fetal bovine serum and 1 μg/mL puromycin and stored in frozen aliquots to be used as assay ready cells. On the day of the assay, cells are removed from frozen storage, washed two times in 1× Kreb's Ringer Buffer (Zenbio, Research Triangle Park, N.C.), and re-suspended to a concentration of 4×10^5 cells/mL in 1× Kreb's Ringer Buffer. […] Cells are incubated with test compound for 1 hr at room temperature in the dark, and cAMP accumulation is measured using the Cisbio HiRange cAMP assay kit (Bedford, Mass.) per the manufacturer's protocol. Anti-cAMP antibody and d2-cAMP tracer reagents diluted in lysis/detection buffer are incubated in the dark for 1 hr, and results are measured on an Envision plate reader (Perkin Elmer, Waltham, Mass.). Data is normalized using 1 nM GIP as 100% activity, and DMSO alone as 0% activity.

A short description of data set [1]: Solubility in phosphate buffer pH 7.4. The gist of the method: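 3 mg of peptide treated with 100 μL portions of 200 mM phosphate buffer pH 7.4, sonicating/vortexing up to 1 min, with further buffer added until fully dissolved. Solubility then quantified by HPLC.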
Another data set relates to C57BL/6J mice. Kind of data set: Oral glucose tolerance test (OGTT). It is filed as in vivo. To be noted: 3 nmol/kg s.c., 24 hours before glucose loading. The gist of the method: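 Peptide or vehicle given s.c. at 0.1, 0.3, 3 or 10 nmol/kg (peptide-dependent), 24 h before oral 50% dextrose at 5 ml/kg unless stated otherwise. Blood glucose read at 0, 15, 30 and 60 min. % inhibition = (1−(AUC cpd−AUC naïve)/(AUC veh−AUC naïve))×100.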

A further data set relates to Dogs. It is filed as in vivo. Conditions: 10 nmol/kg s.c. As to the method: Dogs are transferred to an observation cage (700 mm W×700 mm D×700 mm H [W×D×H], without food) on 1 day before each apomorphine challenge. The dogs are weighed by using an electronic balance then test peptide compounds and vehicle will be administrated via the subcutaneous route. Apomorphine is challenged at 8 hr after the administration and emetic events will be monitored for 1 h by video recording. The second apomorphine challenge will be 72 hr after the administration and emetic events will be recorded by the same protocol. Emesis symptoms are continuously recorded using a video camera and stored on a blue ray disc. Observation of symptoms include retching (a rhythmic contraction of the abdomen) and vomiting (vomiting behavior, including the elimination of vomitus or similar behavior). Besides, the combination of retching and vomiting is defined as emesis, and the number of episodes, latency (time elapsed from morphine administration until the onset of the first emesis symptom), duration (time elapsed between the onset of the first and final episodes of emesis), and frequency (number of animals showing emesis/number of experimental animals) of each of these symptoms is calculated. The latency in cases where emesis symptoms are not noted is taken as the maximum value (1 h for apomorphine challenge) at the end of observation. When the duration of the emesis symptoms is less than 1 min, the duration is recorded, for convenience, as 1 min.

Setting [2] is: read-out: Human GLP1R cAMP EC50, HEK293T.
Where [3] appears, read: HEK-293T cells overexpressing human GIPR, cAMP accumulation, 1 hr, read-out: Human GIPR cAMP EC50, HEK293T.

One may read the EC50 as the concentration at which the effect is half-maximal. By solubility is commonly meant the dissolved amount per volume that the medium holds. Higher therefore signals much dissolved substance. As for “I: H-[NMeY][Aib]EGTFISDYSIALDR[Aib]AQ[Aib]KFVNWLLAQSPSSGAPPPS-OH / II: {C18 diacid}-PAPAPGG (amide I:21-II:C) [Compound 103]”, the EC50 at human GLP-1R (Human GLP1R cAMP EC50, HEK293T (nM)) came out at 29.5 nM; at human GIPR it was 0.0017 nM. Also, the solubility in data set [1] (pH 7.4, aqueous buffer, pH 7.4 Phosphate Buffer - Solubility, 200 mM Phosphate buffer pH 7.4) was at least 60 mg/mL; in data set [1] (pH 7.4, solubility in phosphate buffer at pH 7.4, 200 mM phosphate buffer pH 7.4) it was at least 15 mg/mL.

Consider `CC[C@H](C)[C@H](NC(=O)[C@H](Cc1ccccc1)NC(=O)[C@@H](NC(=O)CNC(=O)[C@H](CCC(=O)O)NC(=O)C(C)(C)NC(=O)[C@@H](N)Cc1ccc(O)cc1)[C@@H](C)O)C(=O)N[C@@H](CO)C(=O)N[C@@H](CC(=O)O)C(=O)N[C@@H](Cc1ccc(O)cc1)C(=O)N[C@@H](CO)C(=O)N[C@H](C(=O)NC(C)(C)C(=O)N[C@@H](CCCCNC(=O)CNC(=O)CNC(=O)CNC(=O)CNC(=O)CNC(=O)CCCCCCCCCCCCCCCCC(=O)O)C(=O)N[C@@H](CC(=O)O)C(=O)N[C@@H](CCCNC(=N)N)C(=O)NC(C)(C)C(=O)N[C@@H](C)C(=O)N[C@@H](CCC(N)=O)C(=O)NC(C)(C)C(=O)N[C@@H](CC(=O)O)C(=O)N[C@@H](Cc1ccccc1)C(=O)N[C@H](C(=O)N[C@@H](CC(N)=O)C(=O)N[C@@H](Cc1c[nH]c2ccccc12)C(=O)N[C@@H](CC(C)C)C(=O)N[C@@H](CC(C)C)C(=O)N[C@@H](C)C(=O)N[C@@H](CCC(N)=O)C(=O)N[C@@H](CCCNC(=N)N)C(=O)NCC(=O)O)C(C)C)[C@@H](C)CC` [Compound 137], for which the EC50 at human GLP-1R (setting [2]) amounted to 3.47 nM; at human GIPR (setting [3]), 0.0013 nM. Also, in the data set with C57BL/6J mice, the “Oral Glucose Tolerance Test Percent decrease in blood glucose AUC (%) over 60 mins” value is 23% (3 nmol/kg). The solubility in data set [1] (pH 7.4) was at least 15 mg/mL; in data set [1] (pH 7.4, aqueous buffer), at least 30 mg/mL.

Take `CC[C@H](C)[C@H](NC(=O)[C@H](Cc1ccccc1)NC(=O)[C@@H](NC(=O)CNC(=O)[C@H](CCC(=O)O)NC(=O)C(C)(C)NC(=O)[C@H](Cc1ccc(O)cc1)NC)[C@@H](C)O)C(=O)N[C@@H](CO)C(=O)N[C@@H](CC(=O)O)C(=O)N[C@@H](Cc1ccc(O)cc1)C(=O)N[C@@H](CO)C(=O)N[C@H](C(=O)NC(C)(C)C(=O)N[C@@H](CCCCNC(=O)CNC(=O)CNC(=O)CNC(=O)CNC(=O)CNC(=O)CCCCCCCCCCCCCCCCCCC(=O)O)C(=O)N[C@@H](CC(=O)O)C(=O)N[C@@H](CCCNC(=N)N)C(=O)NC(C)(C)C(=O)N[C@@H](C)C(=O)N[C@@H](CCC(N)=O)C(=O)NC(C)(C)C(=O)N[C@@H](CC(=O)O)C(=O)N[C@@H](Cc1ccccc1)C(=O)N[C@H](C(=O)N[C@@H](CC(N)=O)C(=O)N[C@@H](Cc1c[nH]c2ccccc12)C(=O)N[C@@H](CC(C)C)C(=O)N[C@@H](CC(C)C)C(=O)N[C@@H](C)C(=O)N[C@@H](CCC(N)=O)C(=O)N[C@@H](CCCNC(=N)N)C(=O)NCC(=O)O)C(C)C)[C@@H](C)CC` [Compound 67]: the EC50 at human GLP-1R (setting [2]) amounted to 33.9 nM; on human GIPR (setting [3]) it was 0.0013 nM. Besides, the solubility was at least 15 mg/mL in data set [1] (pH 7.4) and at least 30 mg/mL in data set [1] (pH 7.4, aqueous buffer).

Turning to `CC[C@H](C)[C@H](NC(=O)[C@H](CO)NC(=O)[C@H](Cc1ccc(O)cc1)NC(=O)[C@H](CC(=O)O)NC(=O)[C@H](CO)NC(=O)[C@@H](NC(=O)[C@H](Cc1ccccc1)NC(=O)[C@@H](NC(=O)CNC(=O)[C@H](CCC(=O)O)NC(=O)C(C)(C)NC(=O)[C@H](Cc1ccc(O)cc1)NC)[C@@H](C)O)[C@@H](C)CC)C(=O)N[C@@H](C)C(=O)N[C@@H](CCCCNC(=O)CNC(=O)CNC(=O)CNC(=O)CNC(=O)CNC(=O)CCCCCCCCCCCCCCCCC(=O)O)C(=O)N[C@@H](CC(=O)O)C(=O)N[C@@H](CCCNC(=N)N)C(=O)NC(C)(C)C(=O)N[C@@H](C)C(=O)N[C@@H](CCC(N)=O)C(=O)NC(C)(C)C(=O)N[C@@H](CC(=O)O)C(=O)N[C@@H](Cc1ccccc1)C(=O)N[C@H](C(=O)N[C@@H](CC(N)=O)C(=O)N[C@@H](Cc1c[nH]c2ccccc12)C(=O)N[C@@H](CC(C)C)C(=O)N[C@@H](CC(C)C)C(=O)N[C@@H](C)C(=O)N[C@@H](CCC(N)=O)C(=O)N[C@@H](CO)C(=O)N1CCC[C@H]1C(=O)N[C@@H](CO)C(=O)N[C@@H](CO)C(=O)NCC(=O)O)C(C)C` [Compound 116], the EC50 was 110 nM at human GLP-1R (setting [2]) and 0.001 nM on human GIPR (setting [3]). Further, the solubility in data set [1] (pH 7.4) was at least 15 mg/mL; in data set [1] (pH 7.4, aqueous buffer) it was at least 30 mg/mL.

`CC[C@H](C)[C@H](NC(=O)[C@H](CO)NC(=O)[C@H](Cc1ccc(O)cc1)NC(=O)[C@H](CC(=O)O)NC(=O)[C@H](CO)NC(=O)[C@@H](NC(=O)[C@H](Cc1ccccc1)NC(=O)[C@@H](NC(=O)CNC(=O)[C@H](CCC(=O)O)NC(=O)C(C)(C)NC(=O)[C@@H](N)Cc1ccc(O)cc1)[C@@H](C)O)[C@@H](C)CC)C(=O)N[C@@H](C)C(=O)N[C@@H](CCCCNC(=O)CNC(=O)CNC(=O)CNC(=O)CNC(=O)CNC(=O)CCCCCCCCCCCCCCCCC(=O)O)C(=O)N[C@@H](CC(=O)O)C(=O)N[C@@H](CCCNC(=N)N)C(=O)NC(C)(C)C(=O)N[C@@H](C)C(=O)N[C@@H](CCC(N)=O)C(=O)NC(C)(C)C(=O)N[C@@H](CC(=O)O)C(=O)N[C@@H](Cc1ccccc1)C(=O)N[C@H](C(=O)N[C@@H](CC(N)=O)C(=O)N[C@@H](Cc1c[nH]c2ccccc12)C(=O)N[C@@H](CC(C)C)C(=O)N[C@@H](CC(C)C)C(=O)N[C@@H](C)C(=O)N[C@@H](CCC(N)=O)C(=O)N[C@@H](CO)C(=O)N1CCC[C@H]1C(=O)NCC(=O)O)C(C)C` [Compound 128]: the “Oral Glucose Tolerance Test Percent decrease in blood glucose AUC (%) over 60 mins” value in the data set on C57BL/6J mice is reported as 57% (3 nmol/kg). In addition, the “% inhibition of emetic events at doses (nmol/kg) shown in dog apomorphine model” value with Dogs (after 8 hrs (upper)) is 56% (10 nmol/kg); in the data set with Dogs (after 72 hours (lower)) it was 60% (10 nmol/kg). Further, the solubility in data set [1] (pH 7.4) is at least 15 mg/mL; in data set [1] (pH 7.4, aqueous buffer), at least 30 mg/mL.

For the origin of these results see US20230143604A1, “QW DOSING OF GIP RECEPTOR AGONIST PEPTIDE COMPOUNDS AND USES THEREOF” (TAKEDA PHARMACEUTICAL COMPANY LIMITED, priority 2020, published 2023).
